Key:
[1] = tested on: rabbits; settings: Current Eye Research 21(4), 782-787 (2000); cited from earlier work
[2] = tested on: rat model from which an exorbital lacrimal gland is excised, additionally applied airflow (corneal epithelial disorder); experiment: Pharmacological Test 2: corneal fluorescein staining score in rat dry eye model (exorbital lacrimal gland excised plus airflow); type: in vivo; settings: 5 μL into both eyes 6 times per day for 6 weeks; 3% diquafosol sodium, 0.1% sodium hyaluronate; compared with non-administered group; FIG. 2
Excerpt: A rat model from which an exorbital lacrimal gland is excised therefrom has been generally used as a model for evaluating therapeutic effects on corneal epithelial disorders induced by dry eye, and has also been used as a model for evaluating therapeutic effects of P2Y2 receptor agonists (Invest. Ophthalmol. Vis. Sci., 42(1), 96-100 (2001)). Using a dry eye model which is additionally applied airflow to the rat model, it was examined whether or not an improvement effect on corneal epithelial disorders could be achieved by the administration of a P2Y2 receptor agonist at a therapeutically effective concentration and hyaluronic acid or a salt thereof at a therapeutically effective concentration in combination. […]
Six weeks after the initiation of the instillation into eyes, an affected part of the cornea was stained with fluorescein, and the occurrence of the corneal epithelial disorder was determined in accordance with the method by Murakami et al. (Journal of the Eye (Atarashii Ganka), 21(1), 87-90 (2004)). That is, with respect to each of an upper part, an intermediate part and a lower part of the cornea, scores of the degree of staining with fluorescein were determined in accordance with the criteria mentioned below, and the average value of the sum total of the scores was calculated. […]

[3] = tested on: normal male white rabbits; experiment: Pharmacological Test 3: change in tear meniscus area (3% diquafosol sodium, 0.002% sodium hyaluronate); type: in vivo, rabbit; settings: 35 minutes after administration, 50 μL, combination: hyaluronate 5 min after diquafosol
Protocol: For the purpose of examining as to whether or not an increase in tear meniscus area values is observed when a P2Y2 receptor agonist at a therapeutically effective concentration is combined with hyaluronic acid or a salt thereof at a concentration which is employed as an additive, the time course of a change in the tear meniscus area value after the sequential ocular instillation of the 3% diquafosol sodium and the 0.002% sodium hyaluronate was evaluated in the same manner as in Pharmacological test 1.
A 3% diquafosol sodium ophthalmic solution was prepared in the same manner as in the above-mentioned Pharmacological test 1. A 0.002% sodium hyaluronate ophthalmic solution was prepared by diluting “Hyalein® ophthalmic solution 0.3%” manufactured and sold by Santen Pharmaceutical Co., Ltd. with physiological saline.
With respect to normal male white rabbits (24 eyes of 12 rabbits in total), a photograph of a tear meniscus before the administration of a drug was taken in the same manner as in pharmacological test 1. […]
(§1) The change in the tear meniscus area before and after the administration of each of the drugs was calculated as a “Δ tear meniscus area value”.

[4] = tested on: normal male white rabbits; experiment: Pharmacological Test 1: change in tear meniscus area after ocular instillation (3% diquafosol sodium, 0.1% sodium hyaluronate); type: in vivo, rabbit; settings: 50 μL instilled once, FIG. 1
Protocol: The change in the tear fluid volume can be evaluated by measuring the value of a tear meniscus area stained with a fluorescein solution (Exp. Eye. Res., 78(3), 399-407 (2004)). Then, the time course of a change in the tear meniscus area value after the sequential administration of diquafosol sodium, which is a P2Y2 receptor agonist, and sodium hyaluronate to eyes was evaluated in accordance with the method of Murakami et al. (Ophthalmic Res., 34, 371-374 (2002)), using normal male white rabbits. […]
A 0.1% fluorescein solution (3 μL) was administered onto a tear meniscus of the lower eyelid of each of normal male white rabbits (40 eyes of 20 rabbits in total), and a photograph of the tear meniscus that was stained with fluorescein accumulated in the eyelid was taken. The area of the stained tear meniscus part in the photograph was calculated using image analysis software, and the resultant value was employed as a baseline. […]
The change in the tear meniscus area before and after the administration of each of the drugs was calculated as “Δ tear meniscus area value”. […]

[5] = tested on: normal male white rabbits; experiment: Pharmacological Test 4: change in tear meniscus area (3% diquafosol sodium, 0.3% sodium hyaluronate); type: in vivo, rabbit; settings: after 35 minutes, 50 μL, combination: hyaluronate 5 min after diquafosol
Protocol: The time course of a change in tear meniscus area values after the sequential instillation of 3% diquafosol sodium and 0.3% sodium hyaluronate into eyes was evaluated in the same manner as in Pharmacological test 1.
A 3% diquafosol sodium ophthalmic solution was prepared in the same manner as in the above-mentioned Pharmacological test 1. “Hyalein® ophthalmic solution 0.3%” manufactured and sold by Santen Pharmaceutical Co., Ltd. was used as a 0.3% sodium hyaluronate ophthalmic solution.
With respect to each of normal male white rabbits (18 eyes of 9 rabbits in total), a photograph of a tear meniscus was taken before the administration of each of the drug in the same manner as in Pharmacological test 1. […]
as §1

[6] = clinical tests; Cornea 23(8), 784-792 (2004); cited from earlier work

Row | Structure (SMILES) | secretion of tear [1] | fluorescein staining scores of the cornea [2] | Δ tear meniscus area value [3] | Δ tear meniscus area value ([4]; 10 minutes after administration (of the first agent)) | Δ tear meniscus area value ([4]; 35 minutes after administration (of the first agent)) | Δ tear meniscus area value [5] [mm^2] | keratoconjunctival epithelial disorders [6] | secretion of tear [6]
1 | Nc1ncnc2c1ncn2[C@@H]1O[C@H](COP(=O)(O)OP(=O)(O)OP(=O)(O)O)[C@@H](O)[C@H]1O [ATP, Adenosine 5′-triphosphate] | can promote the secretion of tear in rabbits | – | – | – | – | – | – | –
2 | O=c1ccn([C@@H]2O[C@H](COP(=O)(O)OP(=O)(O)OP(=O)(O)OP(=O)(O)OC[C@H]3O[C@@H](n4ccc(=O)[nH]c4=O)C(O)[C@H]3O)[C@H](O)C2O)c(=O)[nH]1 (stereo partly drawn) [Diquafosol, P^1,P^4-bis(5′-uridyl)tetraphosphate] | – | the tendency of improvement in fluorescein staining scores was observed, the improvement that can be considered as being statistically significant was not observed | 1 .127 mm^2 | increase in the tear meniscus area value was observed | increase in the tear meniscus area value was observed | 1.434 | ameliorated keratoconjunctival epithelial disorders | promoted the secretion of tear
3 | O=c1ccn([C@@H]2O[C@H](COP(=O)(O)OP(=O)(O)OP(=O)(O)O)[C@@H](O)[C@H]2O)c(=O)[nH]1 [UTP, Uridine 5′-triphosphate] | can promote the secretion of tear in rabbits | – | – | – | – | – | – | –

Source: patent US9006208B2, “Agent for treatment of dry eye characterized by combining P2Y2 receptor agonist and hyaluronic acid or salt thereof, method for treating dry eye, and use of the P2Y2 receptor agonist and hyaluronic acid or salt thereof” (Santen Pharmaceutical Co., Ltd., priority 2010, dated 2015)
